# Results: patent US20230158071A1, “TUMOR COMBINED IMMUNOTHERAPY” (CRAGE medical Co., Limited, priority 2018, published 2023)
# Test system: E0771-EGFRvIII cells
# Test: CCK8 proliferation assay, olaparib on E0771-EGFRvIII breast cancer cells
# Type: cell-based, mouse
# Source text: Since the EGFR287-302 epitope is only exposed in EGFRvIII or tumors overexpressing EGFR, this epitope is hidden in normal tissues (Gan H K et al., Targeting of a conformationally exposed, tumor-specific epitope of EGFR as a strategy for cancer therapy. Cancer Res. 2012, 72(12):2924-2930), conventional methods in molecular biology are used to establish E0771, 4T1 mouse breast cancer cell models (E0771-EGFRvIII, 4T1-EGFRvIII) that overexpress mouse EGFR inserted with amino acid epitope at positions 287-302 of human EGFR. Subsequent research is performed to screen EGFRvIII target-positive cells by cell flow cytometry (FIG. 2A). E0771, 4T1 cells are purchased from the American Type Culture Collection (ATCC).
# As an effective inhibitor of PARP1, olaparib may inhibit PARP1 to participate in DNA damage repair process. In mouse breast cancer cell lines and mouse T cells and CART cells, different levels of PARP1 expression are detected (FIG. 2B). Therefore, CCK8 proliferation assay is required to detect the effect of olaparib on proliferation of tumor cells and CART cells.
# 806-m28Z CAR-T cells in Example 1 are taken to spread in a 96-well plate with 1×10^4 cells per well and 100 μl medium. Breast cancer cells E0771-EGFRvIII and 4T1-EGFRvIII are taken to spread in a 96-well plate with 1×10^4 cells per well and 100 μl medium. Different concentrations of olaparib are taken to add to the cells to make 10 concentration gradients (i.e., the treatment concentrations of olaparib are respectively 50 μM, 20 μM, 10 μM, 5 μM, 2.5 μM, 1 μM, 0.1 μM, 0.01 μM, 0.001 μM, 0 μg/ml). After 48 hours of drug treatment for cells of different groups, 10 μl of CCK8 substrate color reagent (Dojindo) is added to each well; after incubating for 1 hour at 37° C., the absorbance at 450 nm is measured by a microplate reader, calculating the cell viability respectively.
# The formula for calculating the cell viability is as follows:
# Cell viability (%)=[A (adding drug)−A (blank)]/[A (without adding drug)−A (blank)]
structure (smiles),measurement,setting,value
O=C(c1cc(Cc2n[nH]c(=O)c3ccccc23)ccc1F)N1CCN(C(=O)C2CC2)CC1 [olaparib],inhibition rate of proliferation of E0771-EGFRVIII cell line,"1 μM and higher concentration of olaparib, 48 hours, CCK8",65%-90%
same,proliferation of E0771-EGFRVIII cells,1 μM olaparib,inhibited
same,concentration that may inhibit the growth of tumor cells,"in vitro, tumor cells not specified further",higher than 104
same,proliferation of E0771-EGFRVIIII cells,olaparib,inhibited
